In ChEMBL document CHEMBL3045149, “Antifeedant activity of dihydro--agarofuran sesquiterpenes from Celastraceae against Spodoptera littoralis” (1992):

How the values were obtained:
Format in all cases: functional
[1] = system: Spodoptera littoralis; assay: Antifeedant activity against Spodoptera littoralis fifth-instar larvae reared on compound exposed lettuce disks assessed as feeding ratio when 50% of control leaf disk area consumed at 10 ug/cm2 measured for 4 to 5 hr by leaf disk choice method
[2] = system: Spodoptera littoralis; assay: Antifeedant activity against Spodoptera littoralis fifth-instar larvae reared on compound exposed lettuce disks assessed as feeding ratio when 50% of control leaf disk area consumed at 1 ug/cm2 measured for 4 to 5 hr by leaf disk choice method
[3] = system: Spodoptera littoralis; assay: Antifeedant activity against Spodoptera littoralis fifth-instar larvae reared on compound exposed lettuce disks assessed as feeding ratio when 50% of control leaf disk area consumed at 0.1 ug/cm2 measured for 4 to 5 hr by leaf disk choice method
[4] = system: Spodoptera littoralis; assay: Antifeedant activity against Spodoptera littoralis fifth-instar larvae reared on compound exposed lettuce disks assessed as leaf disk protection at 10 to 1 ug/cm2 measured for 4 to 5 hr by leaf disk choice method

Row | Compound | FR50 [1] | FR50 [2] | FR50 [3] | Activity [4] [%]
1 | CC(=O)O[C@H]1[C@H](OC(=O)c2ccccc2)[C@@]2(C)[C@@H](OC(=O)c3ccccc3)C[C@@H]3[C@@H](OC(C)=O)[C@]2(OC3(C)C)[C@@](C)(O)[C@H]1O [2BETA,3BETA,4BETA,TRIHYDROXYCELARBICO] | 0.24 | 0.44 |  | 
2 | CC(=O)O[C@@H]1[C@@H](O)[C@@H]2[C@@H](OC(=O)c3cccnc3)[C@@]3(OC2(C)C)[C@@]1(C)[C@@H](OC(=O)c1ccccc1)CC[C@]3(C)O | 0.74 |  |  | 
3 | CC(=O)O[C@@H]1[C@@H]2[C@@H](OC(C)=O)[C@]3(OC2(C)C)[C@H](C)C[C@H](OC(C)=O)[C@H](OC(C)=O)[C@@]3(CO)[C@H]1OC(=O)c1ccccc1 | 0.07 | 0.53 |  | 
4 | CCC(C)C(=O)O[C@H]1[C@H](O)C[C@@H]2[C@@](C)([C@@H]3C[C@H]4C=CO[C@H]4O3)[C@H](C)C[C@H](OC(C)=O)[C@@]2(COC(C)=O)[C@@]12CO2 (stereo partly drawn) [AJUGAPITIN] |  |  | 0.41 | 
5 | CC(=O)O[C@H]1C[C@@H]2[C@@H](OC(=O)c3cccnc3)[C@@]3(OC2(C)C)[C@@]1(C)[C@@H](OC(=O)c1ccccc1)CC[C@]3(C)O | 0.68 |  |  | 
6 | TRIPHENYLSTANNYL ACETATE | 0.37 |  |  | 
7 | CC(=O)OC[C@@]12[C@@H](OC(=O)/C=C/c3ccccc3)CC[C@](C)(O)[C@]13OC(C)(C)[C@H]([C@@H](OC(C)=O)[C@H]2OC(=O)c1ccccc1)[C@H]3OC(C)=O | 0.27 |  |  | 
8 | CC(=O)O[C@@H]1[C@@H]2[C@@H](OC(C)=O)[C@]3(OC2(C)C)[C@H](C)C[C@H](OC(C)=O)[C@H](OC(C)=O)[C@@]3(CO)[C@@H]1OC(=O)c1ccccc1 | 0.16 | 0.65 |  | 
9 | CC(=O)OC[C@]12[C@H](OC(=O)c3ccccc3)[C@H](OC(C)=O)[C@@H]3[C@@H](OC(C)=O)[C@]1(OC3(C)C)[C@@](C)(O)C[C@H](OC(C)=O)[C@@H]2OC(=O)c1ccccc1 | 0.35 |  |  | 
10 | CC(=O)O[C@H]1[C@@H]2[C@@H](OC(=O)c3cccnc3)[C@@]3(OC2(C)C)[C@@](C)([C@@H](OC(=O)c2ccccc2)CC[C@]3(C)O)[C@@H]1OC(C)=O | 0.04 | 0.15 | 0.45 | 100
11 | CC(=O)O[C@H]1[C@@H]2[C@@H](OC(C)=O)[C@@]3(OC2(C)C)[C@@](C)([C@@H](OC(=O)c2ccccc2)CC[C@]3(C)O)[C@@H]1OC(C)=O | 0.12 | 0.4 |  | 
12 | CCC(C)C(=O)O[C@H]1[C@H](OC(C)=O)C[C@@H]2[C@@](C)([C@@H]3C[C@H]4CCO[C@H]4O3)[C@H](C)C[C@H](OC(C)=O)[C@@]2(COC(C)=O)[C@@]12CO2 (stereo partly drawn) [2-acetyl-14,15-dihydroajugapitin] |  |  | 0.62 | 
13 | CC(=O)OC[C@@]12[C@@H](OC(=O)c3ccccc3)CC[C@](C)(O)[C@]13OC(C)(C)[C@H]([C@@H](OC(C)=O)[C@H]2OC(=O)c1ccccc1)[C@H]3OC(C)=O | 0.24 | 0.58 |  | 
14 | CC(=O)O[C@H]1[C@@H]2C[C@@]3(OC2(C)C)[C@](C)([C@H]1OC(=O)c1ccccc1)[C@@H](OC(=O)c1ccccc1)[C@H](OC(C)=O)[C@H](OC(C)=O)[C@]3(C)O [2BETA,3BETA,4BETA-TRIHYDROXYCELAPANOL] | 0.38 |  |  | 
15 | CC(=O)OC[C@]12[C@@H](OC(=O)c3ccccc3)C[C@@H]3[C@@H](OC(C)=O)[C@]1(OC3(C)C)[C@H](C)C[C@H](OC(C)=O)[C@@H]2OC(C)=O | 0.19 | 0.54 |  | 
16 | CC(=O)O[C@H]1C[C@@H](C)[C@]23OC(C)(C)[C@H](C[C@H](OC(=O)c4ccccc4)[C@]2(CO)[C@H]1OC(C)=O)[C@H]3OC(C)=O | 0.36 |  |  | 
17 | CC(=O)OC[C@]12[C@@H](OC(=O)c3ccccc3)[C@H](OC(C)=O)[C@@H]3[C@@H](OC(C)=O)[C@]1(OC3(C)C)[C@H](C)C[C@H](OC(C)=O)[C@@H]2OC(C)=O | 0.13 | 0.71 |  | 
18 | CC[C@H](C)C(=O)O[C@H]1[C@H](O)C[C@@H]2[C@@](C)([C@@H]3C[C@H]4CCO[C@H]4O3)[C@H](C)C[C@H](OC(C)=O)[C@@]2(COC(C)=O)[C@@]12CO2 [14,15-DIHYDROAJUGAPITIN] |  |  | 0.32 | 
